Results as given in patent US6274330A, “L-AP4 sensitive glutamate receptors” (ZymoGenetics, Inc., priority 1993, dated 2001).
“Also recorded” adds a separate entry of the source.

Legend:
mGluR7 [1] = target: T1, mGluR7 (Rattus norvegicus, UniProt P35400); experiment: Inhibition of forskolin-stimulated cAMP production in BHK cells transfected with mGluR7; assay type: cell-based; details: for antagonism of the inhibition of cAMP produced by L-AP4: antagonist 1 mM; for inhibition of forskolin-stimulated cAMP production: forskolin 10 μM, 10 minutes, IBMX 1 mM; for decrease in cAMP: agonist 100 μM; for agonist potency at mGluR7 compared with that previously observed for mGluR4 or mGluR6: cAMP inhibition, no full concentration-response analysis
T1 construct: RNA-injected Xenopus oocytes
T1 sequence (P35400 35-915): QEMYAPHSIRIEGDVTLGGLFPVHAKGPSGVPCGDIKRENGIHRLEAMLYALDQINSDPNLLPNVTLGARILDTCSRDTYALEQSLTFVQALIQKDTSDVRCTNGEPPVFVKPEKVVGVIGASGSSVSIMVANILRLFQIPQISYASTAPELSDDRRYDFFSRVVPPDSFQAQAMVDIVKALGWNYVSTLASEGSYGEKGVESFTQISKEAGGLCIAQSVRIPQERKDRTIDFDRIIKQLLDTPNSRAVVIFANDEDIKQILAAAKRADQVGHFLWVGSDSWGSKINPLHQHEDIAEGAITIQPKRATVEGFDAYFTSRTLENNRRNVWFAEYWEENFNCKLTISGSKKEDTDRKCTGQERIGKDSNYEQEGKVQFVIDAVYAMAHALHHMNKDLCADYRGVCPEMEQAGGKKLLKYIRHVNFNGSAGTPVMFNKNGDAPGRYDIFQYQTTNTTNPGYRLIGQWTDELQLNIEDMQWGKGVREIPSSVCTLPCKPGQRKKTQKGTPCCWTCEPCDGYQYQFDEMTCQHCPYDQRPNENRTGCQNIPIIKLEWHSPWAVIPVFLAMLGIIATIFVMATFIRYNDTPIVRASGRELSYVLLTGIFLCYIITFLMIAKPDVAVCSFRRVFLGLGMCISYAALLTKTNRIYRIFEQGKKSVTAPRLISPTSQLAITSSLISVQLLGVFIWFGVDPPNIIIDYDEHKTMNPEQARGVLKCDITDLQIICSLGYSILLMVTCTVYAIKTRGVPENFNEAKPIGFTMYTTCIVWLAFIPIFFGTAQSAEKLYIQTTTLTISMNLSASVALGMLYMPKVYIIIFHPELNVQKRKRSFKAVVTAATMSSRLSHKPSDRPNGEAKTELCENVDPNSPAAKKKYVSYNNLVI
Method: FIG. 2 depicts the inhibition of forskolin-stimulated cAMP production by mGluR7 in baby hamster kidney cells. BHK cells transfected with mGluR7 were preincubated for 20 minutes in IBMX (1 mM), then incubated for 10 minutes with forskolin (10 μM) in the presence or absence of agonists or antagonists.
BHK cells were transfected with mGluR7 subcloned into pZEM229R. Plasmid pZEM229R is a pUC18-based expression vector containing an EcoRI cloning site between a mouse metallothionein-I promoter and an SV40 transcription terminator. The vector also contains an expression unit of the SV40 early promoter, mouse dihydrofolate reductase gene, and SV40 terminator. The two expression units are in opposite orientations with their respective promoters adjacent to each other. E. coli HB101 transformed with pZEM229R was deposited with American Type Culture Collection, 12301 Parklawn Drive, Rockville, MD on Sep. 28, 1993.
(§1) The cells were grown in 10% fetal calf serum and Dulbecco's minimal essential media (DMEM), and transfected clones were selected by methotrexate resistance. Resistant clones were assayed for the presence of mGluR7 RNA and protein. Confluent cells were assayed for cAMP production (Amersham) in the presence of IBMX (1 mM) isobutylmethylxanthine; cAMP levels were measured after 10 minute treatment with forskolin (10 μM) in the presence or absence of mGluR agonists or antagonists. Assays were performed in triplicate three times and the average value from these experiments expressed as the mean cAMP levels plus and minus the standard deviation. The basal cAMP production was subtracted from the stimulated levels and the inhibition was plotted as a percent of the forskolin-stimulated control.

mGluR4 = experiment: Forskolin-stimulated cAMP assay in a BHK clone expressing mGluR4; assay type: cell-based; details: L-AP4 1 mM
wild-type BHK cells = experiment: cAMP levels in wild-type BHK cells; assay type: cell-based, hamster
Method: as §1

mGluR7 [2] = target: T1, mGluR7; experiment: Calcium-activated chloride current in Xenopus oocytes injected with mGluR7 mRNA (two-electrode voltage clamp); assay type: cell-based
Method: (§2) For oocyte expression studies, xenopus laevis (Xenopus I, Ann Arbor) were anesthetized with tricaine and oocytes harvested using sterile technique. RNA transcripts from mGluR1 and mGluR7 were injected into Stage V-VI oocytes (1-100 ng RNA/oocyte) and the oocytes were assayed for production of a calcium-activated chloride current using a two-electrode voltage clamp. Harvesting of oocytes, solutions and recording methods were as described by Lester and colleagues (Dascal et al., Brain Res. 387: 201-209 [1986], which is incorporated herein by reference).

mGluR1 = experiment: Calcium-activated chloride current in Xenopus oocytes injected with mGluR1 mRNA (two-electrode voltage clamp); assay type: cell-based; details: sister oocytes injected with mGluR1 mRNA
Method: as §2

[3] = agonist 1 mM, BHK cells expressing mGluR7

SMILES | antagonism of the inhibition of cAMP produced by L-AP4 (mGluR7 [1]; BHK cells expressing mGluR7) | inhibition of forskolin-stimulated cAMP production (mGluR7 [1]; [3]) | decrease in cAMP (mGluR7 [1]; BHK cells expressing mGluR7) | agonist potency at mGluR7 compared with that previously observed for mGluR4 or mGluR6 (mGluR7 [1]) | other results
CC(N)(C(=O)O)c1ccc(C(=O)O)cc1 (racemic) [MCPG, RS-α-methyl-4-carboxyphenylglycine] | did not antagonize | – | – | – | –
N[C@@]1(C(=O)O)CC[C@@H](C(=O)O)C1 [ACPD, (1S,3R)-1-aminocyclopentane-1,3-dicarboxylic acid] | – | less efficient; also recorded: much less effective | – | – | –
N[C@@H](CP(=O)(O)O)C(=O)O [L-AP3, 2-amino-3-phosphonopropionic acid] | did not antagonize | – | – | – | antagonism of mGluR7-mediated cAMP inhibition (mGluR7 [1]; antagonist 3 mM, BHK cells expressing mGluR7): did not antagonize
N[C@@H](CCP(=O)(O)O)C(=O)O [L-AP4, L-2-amino-4-phosphonobutryic acid] | – | largest inhibition; also recorded: inhibited | small decreases in cAMP which were not statistically significant | much less potent agonists | inhibition (cAMP) in BHK clone expressing mGluR4 (mGluR4): 45%; effect on basal cAMP levels (wild-type BHK cells): no significant effect; effect on forskolin-stimulated cAMP levels (wild-type BHK cells): no significant effect
N[C@@H](CCC(=O)O)C(=O)O [glutamate] | – | less efficient; also recorded: inhibited | small decreases in cAMP which were not statistically significant | much less potent agonists | glutamate response (calcium-activated chloride current) (mGluR7 [2]): no glutamate responses; glutamate response (calcium-activated chloride current) (mGluR1): large calcium-activated chloride currents
N[C@@H](Cn1oc(=O)[nH]c1=O)C(=O)O [quisqualate] | – | – | – | – | inhibition of forskolin-stimulated cAMP production (mGluR7 [1]; agonist 0.5 mM, BHK cells expressing mGluR7): less efficient; also recorded: much less effective
